Data published in article PMC10122656, “Siglec-6 mediates the uptake of extracellular vesicles through a noncanonical glycolipid binding pocket” (Nature Communications, 2023).
Values joined by “and” are separate entries in the source; they are usually repeats but may differ in a detail not shown here. Equal values may be shown once.

Tests used:
Assay in all cases: Cell assay (liposome/EV binding, flow cytometry);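 as to liposome binding, fluorescence signal (replicates): AF647 fluorescence intensity from 0.1 mol% AF647–PEG45–DSPE in liposomes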
Assay type in all cases: cell-based
WT Siglec-6 CHO cells = target: T1, WT Siglec-6 CHO cells (Homo sapiens, UniProt O43699); conditions: for log10(MFI AF647) of GLL relative to log10(MFI AF647) of the same GLL against UT CHO cells (Fig. 2a): Sig-6 WT, 3 mol% ganglioside liposomes; for Binding of liposomes to WT Siglec-6 CHO cells relative to liposomes formulated without a ligand (Fig. 3c): 3 mol% glycolipid, Cer = native ganglioside, Amide = amide-linked nGL;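 as to liposome binding, fluorescence signal (replicates): AF647 fluorescence intensity from 0.1 mol% AF647–PEG45–DSPE in liposomes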
T1 construct: expressed in transfected cells
T1 sequence (O43699 27-453): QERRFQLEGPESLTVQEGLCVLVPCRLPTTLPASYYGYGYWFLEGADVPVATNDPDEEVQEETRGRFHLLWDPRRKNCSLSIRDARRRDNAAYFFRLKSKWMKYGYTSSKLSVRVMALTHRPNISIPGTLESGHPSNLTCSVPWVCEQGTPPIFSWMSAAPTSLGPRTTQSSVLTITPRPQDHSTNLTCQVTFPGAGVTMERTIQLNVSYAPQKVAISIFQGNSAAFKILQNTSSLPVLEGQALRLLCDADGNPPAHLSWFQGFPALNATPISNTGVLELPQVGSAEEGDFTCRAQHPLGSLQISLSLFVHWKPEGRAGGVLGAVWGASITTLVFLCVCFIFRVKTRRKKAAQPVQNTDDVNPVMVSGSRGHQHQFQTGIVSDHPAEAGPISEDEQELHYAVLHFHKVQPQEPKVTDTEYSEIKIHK
Description: (§1) Stock lipids (DSPC, Cholesterol, PEG45–DSPE) solutions were prepared by solvating the lipids in chloroform. An appropriate volume of each lipid solution was transferred to a glass test tube to reach the desired mol% of the component. The chloroform was then removed under N2 gas to yield a lipid thin film. Once dry, 100 µL of DMSO was added to the lipid-containing test tube and then the functional lipids (ganglioside, AF647–PEG45–DSPE, Siglec ligand–PEG45–DSPE, pHrodo–PEG45–DSPE, NGL) was added from their respect DMSO stock solution. The lipid mixture was then stored at −80 °C until completely frozen at which point excess DMSO was removed via lyophilization. Dry lipids were then stored at −80 °C until they were extruded. Lipid suppliers can be found in Supplementary Table 4.
(§2) Dry lipids were then hydrated in 1 mL of PBS. The lipids were then sonicated in a bath sonicator in a cycle of 1 min on, 5 min off for a total of five cycles. Liposomes were then extruded using an Avanti mini extruder first using an 800 nm filter and then a 100 nm filter yielding liposomes that were 130 ± 35 nm (Supplementary Table 5) measured using a Malvern Panalytical Zetasizer Nano S. Liposomes were stored at 4 °C.
(§3) 200,000 cells/well were plated into a 96-well U-bottom microplate and centrifuged at 300 × g for 5 min. The cells were then resuspended in 50 µL of 50 µM liposome/50 µg/mL (protein concentration) of EV solution in DMEM F12 5% FBS and incubated at 37 °C for 30 min. Excess liposomes were then removed via centrifuged at 300 × g for 5 min followed by washing the cells with FACS solution. The cells were then resuspended in (1:250 V/V) anti-Siglec-flow buffer (1% V/V FBS, 500 µM, EDTA Hank’s Balanced Salt Solution pH 7.4), solution and left to rest on ice for 30 min. The cells were then centrifuged again at 300 × g for 5 min and the cells were resuspended in FACS buffer solution and were then ready for analysis by flow cytometry. Information regarding antibody clone, catalog number supplier, label isotype, and dilution can be found in Supplementary Table 6. The Siglec-positive cells were gated on for liposome-binding analysis (Supplementary Fig. 1b).
(§4) Flow cytometry measurements were collected on a 5-laser Fortessa X-20 (BD Bioscience). All the resulting data were analyzed using FlowJo (10.5.3) software (BD Biosciences).

CD22 WT CHO cells = target: T2, CD22 WT CHO cells (Homo sapiens, UniProt P20273); conditions: 3 mol% ganglioside liposomes, replicates
T2 construct: expressed in transfected cells
T2 sequence (P20273 20-847): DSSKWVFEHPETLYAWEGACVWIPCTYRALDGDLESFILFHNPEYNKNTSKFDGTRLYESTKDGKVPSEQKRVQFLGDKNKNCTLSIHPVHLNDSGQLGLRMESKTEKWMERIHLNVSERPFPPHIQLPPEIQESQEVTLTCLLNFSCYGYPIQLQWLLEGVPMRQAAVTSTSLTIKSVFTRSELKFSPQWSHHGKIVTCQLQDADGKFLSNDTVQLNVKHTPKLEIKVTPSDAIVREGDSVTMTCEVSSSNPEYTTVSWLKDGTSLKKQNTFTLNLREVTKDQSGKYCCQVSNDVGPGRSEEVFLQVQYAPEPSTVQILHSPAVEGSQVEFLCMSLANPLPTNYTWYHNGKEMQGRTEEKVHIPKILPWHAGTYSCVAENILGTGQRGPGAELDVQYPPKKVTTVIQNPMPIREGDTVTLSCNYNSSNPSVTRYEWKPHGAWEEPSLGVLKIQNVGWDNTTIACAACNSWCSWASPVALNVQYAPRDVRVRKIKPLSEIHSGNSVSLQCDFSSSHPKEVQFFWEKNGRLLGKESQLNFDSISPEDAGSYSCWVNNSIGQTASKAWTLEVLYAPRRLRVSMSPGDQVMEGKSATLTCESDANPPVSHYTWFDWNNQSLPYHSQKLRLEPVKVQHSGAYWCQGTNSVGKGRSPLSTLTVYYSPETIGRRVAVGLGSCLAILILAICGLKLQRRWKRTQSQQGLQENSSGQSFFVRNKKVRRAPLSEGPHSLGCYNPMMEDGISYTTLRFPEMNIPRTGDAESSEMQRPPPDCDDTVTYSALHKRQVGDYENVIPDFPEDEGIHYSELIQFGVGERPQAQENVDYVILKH
Description: as §1, §2, §3, §4

Siglec-8 WT CHO cells = target: T3, Siglec-8 WT CHO cells (Homo sapiens, UniProt Q9NYZ4); conditions: Sig-8 WT; 3 mol% ganglioside liposomes; replicates
T3 construct: expressed in transfected cells
T3 sequence (Q9NYZ4 17-499): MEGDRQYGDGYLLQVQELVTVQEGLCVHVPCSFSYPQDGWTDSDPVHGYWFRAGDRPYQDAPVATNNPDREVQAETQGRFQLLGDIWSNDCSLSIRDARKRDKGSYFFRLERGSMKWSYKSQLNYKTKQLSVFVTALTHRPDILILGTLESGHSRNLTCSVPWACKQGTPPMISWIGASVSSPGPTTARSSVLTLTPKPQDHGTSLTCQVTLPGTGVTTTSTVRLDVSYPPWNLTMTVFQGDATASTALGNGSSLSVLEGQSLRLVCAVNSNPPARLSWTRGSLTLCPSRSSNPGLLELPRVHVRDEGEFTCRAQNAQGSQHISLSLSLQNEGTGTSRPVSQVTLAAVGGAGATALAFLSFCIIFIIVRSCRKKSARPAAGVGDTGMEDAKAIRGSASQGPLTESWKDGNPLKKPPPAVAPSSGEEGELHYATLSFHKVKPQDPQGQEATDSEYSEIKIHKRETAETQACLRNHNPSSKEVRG
Description: as §1, §2, §3, §4

[1] = target: T4, Siglec-10 R119A CHO cells (Homo sapiens, UniProt Q96LC7, R119A); conditions: Sig-10 R119A; 3 mol% ganglioside liposomes; replicates
T4 construct: expressed in transfected cells
T4 sequence (Q96LC7 17-697 R119A): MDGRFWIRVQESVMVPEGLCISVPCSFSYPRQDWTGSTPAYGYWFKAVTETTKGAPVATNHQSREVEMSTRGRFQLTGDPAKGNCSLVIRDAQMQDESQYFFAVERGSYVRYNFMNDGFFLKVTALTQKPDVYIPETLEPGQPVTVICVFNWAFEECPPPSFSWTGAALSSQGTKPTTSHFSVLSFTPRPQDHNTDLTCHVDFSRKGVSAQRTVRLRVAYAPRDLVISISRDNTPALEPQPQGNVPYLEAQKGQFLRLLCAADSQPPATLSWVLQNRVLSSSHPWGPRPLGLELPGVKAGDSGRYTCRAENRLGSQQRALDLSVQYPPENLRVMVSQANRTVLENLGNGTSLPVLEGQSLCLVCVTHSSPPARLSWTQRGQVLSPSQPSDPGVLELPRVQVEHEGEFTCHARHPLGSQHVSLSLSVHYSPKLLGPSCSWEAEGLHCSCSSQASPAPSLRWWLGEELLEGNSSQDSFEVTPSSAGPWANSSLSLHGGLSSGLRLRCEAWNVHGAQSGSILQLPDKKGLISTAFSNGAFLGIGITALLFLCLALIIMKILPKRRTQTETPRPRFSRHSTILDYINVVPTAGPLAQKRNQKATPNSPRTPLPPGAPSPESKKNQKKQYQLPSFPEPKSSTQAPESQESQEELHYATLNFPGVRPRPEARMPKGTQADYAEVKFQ
Description: as §1, §2, §3, §4

[2] = sheet Figure S17, cells not given, three experiments, each with its own Naked control

Molecule | log10(MFI AF647) of GLL relative to log10(MFI AF647) of the same GLL against UT CHO cells (Fig. 2a) (CD22 WT CHO cells) | log10(MFI AF647) of GLL relative to log10(MFI AF647) of the same GLL against UT CHO cells (Fig. 2a) (Siglec-8 WT CHO cells) | log10(MFI AF647) of GLL relative to log10(MFI AF647) of the same GLL against UT CHO cells (Fig. 2a) (WT Siglec-6 CHO cells; replicates) | log10(MFI AF647) of GLL relative to log10(MFI AF647) of the same GLL against UT CHO cells (Fig. 2a) [1] | other results
CCCCCCCCCCCCCCCCOCC(COCCCCCCCCCCCCCCCC)OCc1cn(CCO[C@@H]2O[C@H](CO)[C@@H](O[C@@H]3O[C@H](CO)[C@H](O)[C@H](O[C@]4(C(=O)O)C[C@H](O)[C@@H](NC(C)=O)[C@H]([C@H](O)[C@H](O)CO)O4)[C@H]3O)[C@H](O)[C@H]2O)nn1 [GM3-DAG] | – | – | – | – | liposome binding, fluorescence signal (replicates) (WT Siglec-6 CHO cells; sheet Figure S22b, Sig-6): 1899 and 2014 and 1894 and 1967; liposome binding, fluorescence signal (replicates) (WT Siglec-6 CHO cells; sheet Figure S26a, 3% GM3-DAG liposomes, WT): 5874 and 5544 and 5060 and 6703; liposome binding, fluorescence signal (replicates) (WT Siglec-6 CHO cells; sheet Figure S28b, 3% GM3-DAG liposomes, WT): 2153 and 2258 and 2285 and 2102; liposome binding, fluorescence signal (replicates) (WT Siglec-6 CHO cells; sheet Figure S26d, WT): 1302 and 879 and 1034 and 1211
CCCCCCCCCCCCCCCCOCC(COCCCCCCCCCCCCCCCC)OCc1cn(CCO[C@@H]2O[C@H](CO)[C@@H](O[C@@H]3O[C@H](CO)[C@H](O)[C@H](O[C@]4(C(=O)O)C[C@H](O)[C@@H](NC(C)=O)[C@H]([C@H](O)[C@H](O)CO)O4)[C@H]3O)[C@H](O)[C@H]2O)nn1 [nGL 5] | – | – | – | – | nGLL binding to WT Siglec-6 CHO cells (in words) (WT Siglec-6 CHO cells; 3 mol% nGL in liposomes): relatively high binding; Binding of nGL liposomes to WT Siglec-6 CHO cells relative to naked liposomes (Fig. 3e) (WT Siglec-6 CHO cells; 3 mol% nGL, replicates): 13.1 and 10.8 and 11.4 and 14; Binding of nGL liposomes relative to liposomes formulated with 3 mol% nGL 5 (Fig. 3g) (WT Siglec-6 CHO cells; WT Siglec-6 CHO cells, 3 mol% nGL, replicates): 0.93 and 1.01 and 1.13; fold difference in binding to Siglec-6 between 5 and GM3 (WT Siglec-6 CHO cells; cell assay (liposomal display)): 34 fold; liposome binding, fluorescence signal (replicates) (WT Siglec-6 CHO cells; [2]): 3983 and 3299 and 3469 and 4281; liposome binding, fluorescence signal (replicates) (WT Siglec-6 CHO cells; sheet Figure S18a, cells not given): 2909 and 2902 and 3112 and 3410; optimal content of 5 in liposomes for engaging Siglec-6 (WT Siglec-6 CHO cells; titration in cell assay and bead assay): 5 mol%
GD1a | 0.06 (2×) and 0.03 and 0.05 | -0.17 and -0.14 and -0.12 and -0.13 | 0.57 (2×) and 0.56 (2×) | 0.11 and 0.12 and 0.1 (2×) | –
GD1b | -0.04 and -0.05 and -0.06 (2×) | -0.17 (2×) and -0.15 (2×) | 0.23 and 0.21 (2×) and 0.22 | -0.02 and -0.04 and -0.01 and 0 | –
GD3 | 0.09 and 0.07 and 0.1 (2×) | -0.11 and -0.06 and -0.09 and -0.01 | 0.91 and 0.9 (2×) and 0.88 | 0.12 (2×) and 0.09 and 0.1 | –
GM1 | -0.03 (2×) and -0.04 and -0.06 | -0.02 (3×) and 0.04 | 0.96 and 0.93 and 0.94 (2×) | -0.02 and 0.03 and 0.04 and 0.09 | Binding of liposomes to WT Siglec-6 CHO cells relative to liposomes formulated without a ligand (Fig. 3c) (WT Siglec-6 CHO cells; replicates, listed as GM1 Cer): 10 and 9.9 and 11 and 10.2; GLL binding to Siglec-6 with increasing ganglioside content (in words) (WT Siglec-6 CHO cells; ganglioside titrated in GLLs): decreased above an optimal ganglioside content; liposome binding, fluorescence signal (replicates) (WT Siglec-6 CHO cells; [2]): 2111 and 2091 and 2310 and 2148
GM2 | 0.01 (3×) and 0 | -0.18 (2×) and -0.15 and -0.17 | 0.03 (2×) and 0.04 and 0.06 | 0.05 and 0.07 (2×) and 0.06 | –
GM3 | -0.16 and -0.15 (3×) | -0.22 and -0.18 and -0.2 and -0.17 | -0.2 (2×) and -0.19 and -0.17 | -0.12 (2×) and -0.13 (2×) | Binding of liposomes to WT Siglec-6 CHO cells relative to liposomes formulated without a ligand (Fig. 3c) (WT Siglec-6 CHO cells; replicates, listed as GM3 Cer): 0.344 and 0.335 and 0.365 and 0.403; liposome binding, fluorescence signal (replicates) (WT Siglec-6 CHO cells; [2]): 274 and 267 and 291 and 321
GM4 | 0.05 (2×) and 0.06 and 0.07 | -0.15 (2×) and -0.14 and -0.13 | 0.02 (2×) and 0.05 and 0.04 | 0 and -0.02 and 0.02 and 0.01 | –
GQ1b | -0.05 (3×) and -0.04 | -0.02 (2×) and -0.04 and 0.24 | 0.57 and 0.55 and 0.54 and 0.56 | -0.06 (2×) and -0.07 and -0.05 | –
GT1b | 0.06 (2×) and 0.04 and 0.05 | -0.21 and -0.22 and -0.23 and -0.19 | 0.81 and 0.79 and 0.8 (2×) | 0.05 and 0.03 (2×) and 0 | –
